Experimental data as given in paper PMC6257622, “Discovery and Structure–Activity-Relationship Study of N-Alkyl-5-hydroxypyrimidinone Carboxamides as Novel Antitubercular Agents Targeting Decaprenylphosphoryl-β-D-ribose 2′-Oxidase” (Journal of Medicinal Chemistry, 2018).
≈ marks a conversion by molar mass, not a printed value.

Columns and labels:
Format in all cases: cell-based, Mycobacterium tuberculosis
[1] = system: dprE12–TetON1 mutant (dprE1–dprE2 operon); details: removal of anhydrotetracycline; OD580nm at day 10 relative to DMSO control
[2] = system: Mtb DprE1 Y314C mutant
[3] = system: Mtb DprE1 N364S mutant
[4] = system: P01-resistant mutants of Mtb H37Rv
[5] = system: Mtb DprE1 P116S mutant
[6] = system: Mtb DprE1 Y314H mutant

How did the “effect of dprE1–dprE2 transcriptional repression on susceptibility / growth inhibition” value (from here on “effect … on susceptibility / growth inhibition”) [1] turn out when CC(NC(=O)c1nc(Cc2ccccc2C(F)(F)F)n(C)c(=O)c1O)c1ccccc1 (stereo not shown) [Compound P13, 5-Hydroxy-1-methyl-6-oxo-N-(1-phenylethyl)-2-(2-(trifluoromethyl)benzyl)-1,6-dihydropyrimidine-4-carboxamide] was run?
The value was “did not result in growth inhibition”.

Which “effect … on susceptibility / growth inhibition” value [1] does the source give for C[C@H]1COC2(CCN(c3nc(=O)c4cc(C(F)(F)F)cc([N+](=O)[O-])c4s3)CC2)O1 [BTZ043, reference compound] here?
The value was “increase in susceptibility”.

Which “effect … on susceptibility / growth inhibition” value [1] does the source give for CC[C@@H](CO)NCCN[C@@H](CC)CO [ethambutol, reference compound] here?
Its value is “equipotent efficacy”.

How did the “effect … on susceptibility / growth inhibition” value [1] turn out when CCn1c(Cc2ccccc2C(F)(F)F)nc(C(=O)NCc2ccccc2)c(O)c1=O [Compound P04, N-Benzyl-1-ethyl-5-hydroxy-6-oxo-2-(2-(trifluoromethyl)benzyl)-1,6-dihydropyrimidine-4-carboxamide] was run?
Its value is “more growth inhibition”.

Cn1c(Cc2ccccc2C(F)(F)F)nc(C(=O)NCc2ccccc2)c(O)c1=O [Compound P01, N-Benzyl-5-hydroxy-1-methyl-6-oxo-2-(2-(trifluoromethyl)benzyl)-1,6-dihydropyrimidine-4-carboxamide] was tested. Which “effect … on susceptibility / growth inhibition” value [1] did it give?
The value was “more growth inhibition”.

What about the “MIC, DprE1 mutation Y314C” value [2] of the same compound?
The value was 25 µM (≈ 10.4 µg/mL).

What about the “fold change of MIC, Y314C” value [2] of the same compound?
The value was 8.

And the “MIC, DprE1 mutation N364S” value [3]?
The value was 2.34 µM (≈ 0.977 µg/mL).

What about the “fold change of MIC, N364S” value [3] of the same compound?
The value was 0.75.

What about the “level of resistance of P01-resistant mutants compared with the parental strain” value [4] of the same compound?
Its value is “more than 10 fold”.

And the mutation frequency ([4]; at 10× MIC on solid medium)?
The mutation frequency was 7 × 10^–9.

What about the “MIC, DprE1 mutation P116S” value [5] of the same compound?
The value was 18.8 µM (≈ 7.85 µg/mL).

What about the “fold change of MIC, P116S” value [5] of the same compound?
Its value is 6.

What about the “MIC, DprE1 mutation Y314H” value [6] of the same compound?
The value was greater than 50 µM.

What about the “fold change of MIC, Y314H” value [6] of the same compound?
Its value is greater than 16.

With CCOC(=O)NC(=O)c1ccsc1NC(=O)c1nc2ccccc2s1 [TCA1, reference compound] as the compound, how does the “effect … on susceptibility / growth inhibition” value [1] read?
The value was “increase in susceptibility”.
